US11427533B2, “Crystalline polymorphs of bardoxolone methyl” (PLIVA HRVATSKA d.o.o., priority 2017, dated 2022)
Values after ≈ are worked out from the molar mass of the structure shown. “Also recorded” adds a separate entry of the source. Where two headings read alike, the source gives them in different places.

How the values were obtained:
[1] = Solubility in aqueous buffers, shaker at 37° C., filtrate by UHPLC; type: physicochemical; conditions: for Concentration mg/mL (UHPLC) / solubility thermodynamic at 2 h: 150 mg/8 mL suspension; for solubility thermodynamic at 2 h: 37 °C, thermodynamic from solid, read-out: Concentration mg/mL (UHPLC); for Solubility compared with crystalline form A / Solubility compared with non-crystalline (amorphous) form B: in words
Description: UHPLC analyses was performed on Agilent 1290 Infinity LC system with a DAD. UV spectra were recorded at 190-400 nm, with the working wavelength of 240 nm. The column used was Waters Acquity UPLC BEH Phenyl (100 mm×2.1 mm i.d., particle size 1.7 μm), at the column temperature of 50° C. Mobile phases employed for gradient elution were water with 0.1% of formic acid as mobile phase A and acetonitrile with 0.1% of formic acid as mobile phase B. Gradient conditions for the analysis were: isocratic flow from 0.0 to 0.5 min with 40% of mobile phase B; linear gradient from 40% of mobile phase B up to 90% of mobile phase B from 0.5 to 4.0 min; isocratic flow at 90% of mobile phase B from 4.0 to 4.5 min; linear gradient down to 40% of mobile phase B from 4.5 to 5.0 min and finally, reconditioning the column for 0.5 min on starting conditions. 1 μL to 10 μL of sample solution was injected at a flow rate of 0.7 mL min^−1.
Solubility of Bardoxolone methyl form D and the patent forms in U.S. Pat. Nos. 8,309,601 and 8,088,824 were determined in aqueous buffers and water. Suspension of tested substance (150 mg/8 mL) was stirred on a shaker (200 rpm) in a closed vial at 37° C. Suspension was filtered and concentration of Bardoxolone methyl in filtrate was determined by UHPLC. Undissolved residue was analyzed by XRPD.

[2] = as indicated in WO2010093944; cited from earlier work
[3] = Physical stability of Form D (pressure, heating, sauna), form checked by XRPD; type: physicochemical; conditions: for XRD form after transformation by sauna (closed flask, RT): 1 day; for XRD form after pressure: 1 min
Description: Crystalline Form D of Bardoxolone is also stable to conversion after exposure to an atmosphere containing organic solvents, for example ethylene glycol, in a closed vessel at room temperature for 24 hours). Such stability may enable the use of form D in variety of preparation methods including preparation of solid dispersion by spray drying, wet granulation etc.
Sample after being powdered in a mortar and pestle is applied directly on a silicon plate holder. The X-ray powder diffraction pattern was measured with Philips X'Pert PRO X-ray powder diffractometer, equipped with Cu irradiation source=1.54184 Å (Ångström), X'Celerator (2.022° 2θ) detector.
The physical stability of Form D was investigated at different conditions: in heating, under pressure and by sauna.

[4] = buffer pH 1.2 (0.063M HCl + 2.0 g/L NaCl), 2 h at 37° C.
[5] = buffer pH 4.5 (0.05M acetate buffer PhEur), 2 h at 37° C.

Concentration mg/mL (UHPLC) [1, 4] | Concentration mg/mL (UHPLC) ([1]; buffer pH 1.2 (0.063M HCl + 2.0 g/L NaCl), 4 h at 37° C.) | Concentration mg/mL (UHPLC) [1, 5] | solubility thermodynamic at 2 h ([1]; HCl/NaCl buffer, pH 1.2, simulated gastric fluid, buffer pH 1.2 (0.063M HCl + 2.0 g/L NaCl), 2 h at 37° C.) [µg/mL] | solubility thermodynamic at 2 h ([1]; acetate buffer, pH 4.5, aqueous buffer, buffer pH 4.5 (0.05M acetate buffer PhEur), 2 h at 37° C.) [µg/mL] | Solubility compared with crystalline form A [1] | Solubility compared with non-crystalline (amorphous) form B [1] | Solubility compared with crystalline form A ([1]; listed as form D) | Solubility compared with non-crystalline (amorphous) form B ([1]; listed as form D) | XRD form after heating (open vessel) ([3]; 100° C., 5 min) | XRD form after transformation by sauna (closed flask, RT) ([3]; ethylene glycol) | XRD form after pressure ([3]; pressure 1 t) | XRD form after pressure ([3]; pressure 2 t) | XRD form after transformation by sauna (closed flask, RT) ([3]; water) | Compound | Oral bioavailability (in words) [2] | Polymorphic stability, conversion to other forms (in words) ([3]; pressure 1 t or 2 t 1 min, 100° C. 5 min, water sauna RT 90%-100% RH 24 hours, ethylene glycol atmosphere RT 24 hours)
LTQL | LTQL | LTQL |  |  |  |  |  |  |  |  |  |  |  | COC(=O)[C@]12CCC(C)(C)C[C@H]1[C@H]1C(=O)C=C3[C@]4(C)C=C(C#N)C(=O)C(C)(C)[C@@H]4CC[C@@]3(C)[C@]1(C)CC2 [Form A, Methyl-2-cyano-3,12-dioxooleana-1,9(11)-dien-28-oic acid, reference compound] | relatively low oral bioavailability | 
 |  |  | 0.08 | 0.04 (≈ 0.0791 µM) |  |  |  |  |  |  |  |  |  | COC(=O)[C@]12CCC(C)(C)C[C@H]1[C@H]1C(=O)C=C3[C@]4(C)C=C(C#N)C(=O)C(C)(C)[C@@H]4CC[C@@]3(C)[C@]1(C)CC2 [Form B, Methyl-2-cyano-3,12-dioxooleana-1,9(11)-dien-28-oic acid, reference compound] | markedly superior oral bioavailability compared to Form A | 
0.00004 mg/mL |  | 0.00002 mg/mL |  |  | improved solubility | comparable solubility | higher | comparable | Form D | Form D | Form D | Form D | Form D | COC(=O)[C@]12CCC(C)(C)C[C@H]1[C@H]1C(=O)C=C3[C@]4(C)C=C(C#N)C(=O)C(C)(C)[C@@H]4CC[C@@]3(C)[C@]1(C)CC2 [Form D, Methyl-2-cyano-3,12-dioxooleana-1,9(11)-dien-28-oic acid] |  | maintained; also recorded: resistant to conversion to any other forms
